Experimental data published in PMC8297402, “Trifluoromethyl-substituted 3,5-bis(arylidene)-4-piperidones as potential anti-hepatoma and anti-inflammation agents by inhibiting NF-кB activation” (Journal of Enzyme Inhibition and Medicinal Chemistry, 2021).
Like-named read-outs stand apart in the source and are kept apart here.

Columns and labels:
[1] = system: SMMC-7721; experiment: Modified MTT cytotoxicity assay, SMMC-7721; assay type: cell-based, Human; details: for SI (selectivity index) SMMC-7721: quotient of IC50 for normal (LO2) and malignant (SMMC-7721) cells
Procedure, shortened: (§1)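 HepG2 grown in DMEM, SMMC-7721 and LO2 in RPMI 1640, each with 10% FBS; ~8 × 10^3 cells/well. Compounds at 0.3125-10 μg/mL for 24 h at 37 °C, then MTT for 4 h. IC50 as mean of three replicates.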

[2] = system: female ICR mice; experiment: Acute toxicity study, 14 days intragastric administration; assay type: in vivo; details: for Liver tissue morphology, HE staining: intragastric
Procedure: Preliminary safety evaluation of BAP 16 […]
Acute Toxicity Studies: Animal experiments were reviewed and approved by the Binzhou Medical University Experimental Animal Committee. The acute toxicity study was investigated on the six-week-old female ICR mice (n = 30) weighing 18-22 grams (Jinan Pengyue Experimental Animal Breeding Co., Ltd.). Briefly, mice were randomly divided into three groups (n = 10/group) and administrated the BAP 16 or solvent. The three groups of mice were treated with intragastric administration of 300 mg/kg, 600 mg/kg of BAP 16 and vehicle (saline containing 0.5% CMC-Na) each day. The body weight of mice was recorded every day, and the toxicity and death of mice were monitored daily for up to day 14. On day 14, the surviving animals were dissected to observe whether the internal organs had visible tissue changes, and then the livers were taken for formaldehyde fixation, dehydration, embedding, sectioning, and HE staining. The cell images were taken using a light microscopy (Olympus, Tokyo, Japan).
During the 14 days of intragastric administration, the food and water intakes of all three groups […]
eosinophilic changes, and edema (Figure S1).
Figure S1. The morphology of the liver tissues after the photo by HE staining. (A) In the control group, the hepatic lobular cells were normal without edema and degeneration. (B) In the 300 mg/kg […]
nucleus stained deeper. […] (C) […]
smaller and the color of nucleus became deeper. There were obvious eosinophilic changes and […]
(1 picture or pasted object on this page, not shown here)

[3] = system: TNF-α; experiment: ELISA of TNF-α release in LPS-stimulated RAW264.7 cells; assay type: cell-based, mouse; details: Mus musculus
Procedure, shortened: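 RAW264.7 cells pretreated 2 h with compound at 5.0 μM (PDTC 30 μM as reference), then stimulated with LPS 1.0 μg/mL for a further 22 h. Secreted TNF-α and IL-6 in the culture media quantified by ELISA.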

[4] = system: HepG2; experiment: Modified MTT cytotoxicity assay, HepG2; assay type: cell-based, Human; details: for IC50: Homo sapiens; for SI (selectivity index) HepG2: quotient of IC50 for normal (LO2) and malignant (HepG2) cells
Procedure, shortened: as §1

[5] = system: HepG2 cells; experiment: Apoptosis assay, Annexin V-FITC/PI flow cytometry; assay type: cell-based, Human; details: 1.0 μM, 24 h
Procedure: HepG2 cells were selected and plated at a density of approximately 2 × 10^5 cells/well in a 12-well plate. After treatment with BAP 16 (1.0, 2.0, and 4.0 μM) and DMSO for 24 h, cells were harvested, washed twice with pre-chilled PBS, and suspended in 1 × binding buffer at a concentration of 1 × 10^5 cells/mL. According to the manufacturer’s instruction, 100 μL of such medium was then mixed with 5 μL of Annexin V-FITC and 5 μL of propidium iodide (BD Biosciences, San Jose, CA, USA). The mixture was vortexed gently, then incubated in the dark at room temperature for 15 min. Apoptosis analysis was measured by flow cytometry (BD FACS Calibur).

[6] = system: RAW264.7 cell; experiment: MTT toxicity pre-experiment on RAW264.7 macrophagocyte; assay type: cell-based, mouse
Procedure, shortened: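 Cytotoxicity toward RAW264.7 macrophages determined by MTT assay with compounds at 5.0 μM, expressed as cell survival rate.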

[7] = mice, intragastric, 300, 600 mg/kg/d, 14 days

## O=C1C(=Cc2cccc(C(F)(F)F)c2)CN(S(=O)(=O)c2ccc(C(F)(F)F)cc2)CC1=Cc1cccc(C(F)(F)F)c1 [BAP 16]
[1]; Homo sapiens, SMMC-7721, 24 h, MTT, 24 h incubation, three replicates
  IC50: ~1200 nM
[1]
  SI (selectivity index) SMMC-7721: ca. 14.8
[1]; listed as 16
  SI (selectivity index) SMMC-7721: 14.8
[2]; cell and acute toxicity studies together
  Overall toxicity conclusion: low overall toxicity
[2]; mice, 300 mg/kg group, day 14
  Liver tissue morphology, HE staining: some liver cells became smaller
[2]; mice, 600 mg/kg group, day 14
  Liver tissue morphology, HE staining: the cytoplasm of mouse liver was dehydrated seriously
[2]; [7]
  Body weight: increased slightly
  Food and water intakes: normal
  Toxic reaction observed during administration: no obvious toxic reaction was observed
[2]; mice, intragastric, 300, 600 mg/kg/d, day 14
  Liver tissue changes, HE staining: dose-related toxic changes
[3]; RAW264.7, BAPs (5 μM) + LPS (1 μg/mL), RAW264.7, ELISA, read-out: Inhibition rate TNF-α
  inhibition at 5 µM: ~83.2%
[3]; RAW264.7, average of TNF-α and IL-6, 5 μM + LPS, RAW264.7, read-out: Inhibition rates against IL-6 and TNF-α cytokine release, average
  inhibition at 5 µM: 81.2%
[4]; HepG2, 24 h, MTT, 24 h incubation, three replicates, read-out: Cytotoxicity IC50 HepG2
  IC50: ~600 nM
[4]; HepG2, average of HepG2 and SMMC-7721, read-out: Cytotoxicity against HCC cells, average
  IC50: 900 nM
[4]; average of SI for HepG2 and SMMC-7721
  SI value, average: 22.3
[4]
  SI (selectivity index) HepG2: ca. 29.7
[4]; listed as 16
  SI (selectivity index) HepG2: 29.7
[5]
  Apoptosis of HepG2 cells: 31.7%
[6]; BAPs 5 μM
  Survival rate RAW264.7 cell: 88.6 ± 3.7%
[6]; Mus musculus, RAW264.7, BAPs 5 μM, read-out: Survival rate RAW264.7 cell
  viability at 5 µM: 88.6%
